Reference: patent publication US20220363848A1, “ANTIMICROBIAL MULTILAYER FILM” (Cryovac, LLC, priority 2019, published 2022)

Tested on: microbes of beef purge inoculum
Experiment: Modified film test: total aerobic plate count after contact of inoculum with antimicrobial test film
Type: cell-based
Conditions: for Antimicrobial Performance vs. VLDPE Control (percent reduction in microbes), Amide wax alone Erucamide, Test 2: primary additive 10 wt % in Affinity PL 1280G1 C8-VLDPE containing 1664 ppm cis-13-docosenamide
Method: Each of the materials shown in Tables 1 and 2 was compounded into sealant resin, comprised of Affinity PL 1280G, a C8-VLDPE and films were prepared for microbial control testing. The primary additives were tested at 10 wt %. Secondary additives and Cis-13-docosenamide (sold under the trade name Erucamide) were tested as detailed in Table 3.
Test 2: Each of the primary antimicrobial materials in Table 1 was compounded at 10 wt % into sealant resin comprised of Affinity PL 1280G1, a C8-VLDPE containing 1664 ppm of cis-13-docosenamide and films were prepared for microbial control testing.
Tests 3-5: Each of the primary antimicrobial materials in Table 1 was compounded at 10% w/w into sealant resin comprised of Affinity PL 1280G, a C8-VLDPE and 2-3 wt % of the secondary antimicrobials (Table 2) or cis-13-docosenamide were added as detailed in Table 3 and films were prepared for microbial control testing.
Due to the limitations seen in the laboratory with the ISO 22196 test, a modified film test was developed. The test protocol was designed to simulate an actual package environment. […] “Purge” is the liquid that exudes from cut meat or poultry and collects freely in the package. This is typically found in larger packages. The purge liquid can be carefully removed from the packages and used for the following tests. For the tests conducted in this study, beef purge was used. The beef purge is a combination of water, fats, enzymes and meat proteins that drain from the meat. The purge also contains the same bacterial flora as that which contaminates the surface of the meat itself. Thus, this purge could include gram positive bacteria like Lactobacillus species, (Lactic Acid Bacteria), and Listeria species, as well as, gram negative bacteria like E. coli, Campylobacter or Salmonella species.
Antimicrobial films may contain the active ingredient extruded into the surface layer of the film, or coated onto the film. A test method was developed to provide a continuous, uniform coverage of a known amount of the inoculum on the test films.
A 1 inch by 3 inch “tape well” is created on the antimicrobial test film. The “tape well” is crafted by cutting a 1 inch by 3 inch section from a strip of 3 inch wide vinyl tape and applying the tape to the antimicrobial film surface. The test film is secured to a Lexan sheet for stability and handling.
To the well, 0.2 ml of an inoculum is added. The inoculums are either the meat purge or cultures of nutrient broth with E. coli (ATTC #4157 or ATTC #33876) added to the broth. The Escherichia coli is a gram-negative, facultative, anaerobic, rod-shaped, coliform bacterium.
A 1 inch by 3 inch strip of Cryovac brand D-955, a non-barrier film, is placed over the inoculum to provide complete wetting of the test film with the inoculum and to prevent desiccation of the inoculum. The high OTR properties of the D-955 allow growth of the inoculum trapped between the antimicrobial test film and the D-955 film.
Inoculated films are incubated at refrigerated conditions of 40° F. for both 1 and 5 days in a high humidity sealed pouch.
The inoculum is recovered from the well by both adding the inoculum wetted D-955 film over-layment to a distilled water test tube and by swabbing the test film surface twice and placing the swab in the same test tube.
The total aerobic plate count is enumerated using Aerobic Plate Count 3M Petri Film.
Results are reported as log10 CFU/g. The difference in counts between the sample and control is the “delta log CFU/g”. This is mathematically converted to a percent reduction=(1−10^(−delta log CFU/g))*100

[1] = 5 day test, beef purge inoculum, 40° F.

SMILES | Antimicrobial Performance vs. VLDPE Control (percent reduction in microbes), Amide wax alone Erucamide, Test 2 [1] | Antimicrobial Performance vs. VLDPE Control (percent reduction in microbes), None Control, Test 1 (primary additive 10 wt % in Affinity PL 1280G C8-VLDPE sealant film, no secondary additive, 5 day test, beef purge inoculum, 40° F.) | Antimicrobial Performance vs. VLDPE Control (percent reduction in microbes), Cleanatis M1 @ 2%, Test 4 (primary additive 10 wt % in VLDPE film plus 2 wt % Cleanatis M1 (With Amide wax), 5 day test, beef purge inoculum, 40° F.) | Antimicrobial Performance vs. VLDPE Control (percent reduction in microbes), Cleanatis M2 @2%, Test 5 (primary additive 10 wt % in VLDPE film plus 2 wt % Cleanatis M2 (With Amide wax), 5 day test, beef purge inoculum, 40° F.) | Antimicrobial Performance vs. VLDPE Control (percent reduction in microbes), KANCOR CLS @ 2%, Test 3 (primary additive 10 wt % in VLDPE film plus 2 wt % Kancor OxiKan CLS (With Amide wax), 5 day test, beef purge inoculum, 40° F.) | Percent Reduction in Microbes of Test Samples at Day 5 versus the "Additive Controls", None Control, Test 1 (primary additive 10 wt % in VLDPE film, control = VLDPE film, Day 5) | Percent Reduction in Microbes of Test Samples at Day 5 versus the "Additive Controls", Amide wax Erucamide, Test 2 (primary additive 10 wt % in VLDPE with Erucamide, control = VLDPE + Erucamide film, Day 5) | Percent Reduction in Microbes of Test Samples at Day 5 versus the "Additive Controls", Cleanatis M1 @ 2%, Test 4 (primary additive 10 wt % plus Cleanatis M1 2%, control = VLDPE + Cleanatis M1 film, Day 5) | Percent Reduction in Microbes of Test Samples at Day 5 versus the "Additive Controls", Cleanatis M2 @2%, Test 5 (primary additive 10 wt % plus Cleanatis M2 2%, control = VLDPE + Cleanatis M2 film, Day 5) | Percent Reduction in Microbes of Test Samples at Day 5 versus the "Additive Controls", KANCOR CLS @ 2%, Test 3 (primary additive 10 wt % plus KANCOR CLS 2%, control = VLDPE + KANCOR CLS film, Day 5)
CCCCCCCC/C=C\CCCCCCCCCCCC(N)=O [Erucamide, Cis-13-docosenamide] | 0% |  |  |  |  |  |  |  |  | 
C[C@H](O)C(=O)[O-].[Na+] [Purasal S98, Sodium L-lactate] | 0% | 0% | 8.8% | 64.5187% | 92.0567% | 0% | 0% | Growth | Growth | 22.3735%
